{
  "source": "patent US7939623B2",
  "about": "“Composition containing flavan compound” (Toyo Shinyaku Co., Ltd., priority 2004, dated 2011)",
  "assay": "Evaluation for coagulation-precipitation of flavan compounds and proteins (peptides), Reference Example",
  "type": "physicochemical",
  "set-up": "key: +: The precipitation was remarkably observed; ±: The precipitation was slightly observed; −: Not observed",
  "settings": "room temperature, one week",
  "experimental": "Then, an aqueous solution of each of the pine bark extract, the proanthocyanidin dry powder, and epigallocatechin (produced by Roche Vitamins Japan K.K.) was prepared such that a final concentration was 0.2 wt %, as a first liquid. Separately, collagen (having an average molecular weight of 300 thousands: produced by KOKEN CO., LTD), Nippi Peptide PA-100 (having an average molecular weight of 10,000: produced by Nippi, incorporated), Collagen peptide DS (having an average molecular weight of 7,000: produced by Kyowa. […] At room temperature, 1 mL of first liquid and 1 mL of second liquid were mixed. The resultant liquid mixture was allowed to stand at room temperature for one week, and it was visually observed whether or not precipitation or suspension was caused in the liquid mixture.",
  "key": {"[1]": {"settings": "second liquid: collagen average MW 300,000"}, "[2]": {"settings": "second liquid: collagen peptide average MW 1,000"}, "[3]": {"settings": "second liquid: collagen peptide average MW 3,000"}, "[4]": {"settings": "second liquid: collagen peptide average MW 5,000"}, "[5]": {"settings": "second liquid: collagen peptide average MW 7,000"}, "[6]": {"settings": "second liquid: collagen peptide average MW 10,000"}},
  "data": [
    {"substance": "Epigallocatechin gallate", "values": [
      {"measurement": "Precipitation", "setting": "0.2 wt % first liquid 1 mL + 1 mL 10.0 wt % second liquid: glycine (MW 75), visual", "value": "−"},
      {"measurement": "Precipitation", "setting": "[1]", "value": "+"},
      {"measurement": "Suspension", "setting": "[1]", "value": "+"},
      {"measurement": "Precipitation", "setting": "[2]", "value": "−"},
      {"measurement": "Suspension", "setting": "[2]", "value": "−"},
      {"measurement": "Precipitation", "setting": "[3]", "value": "−"},
      {"measurement": "Suspension", "setting": "[3]", "value": "−"},
      {"measurement": "Precipitation", "setting": "[4]", "value": "−"},
      {"measurement": "Suspension", "setting": "[4]", "value": "−"},
      {"measurement": "Precipitation", "setting": "[5]", "value": "−"},
      {"measurement": "Suspension", "setting": "[5]", "value": "−"},
      {"measurement": "Precipitation", "setting": "[6]", "value": "±"},
      {"measurement": "Suspension", "setting": "[6]", "value": "+"},
      {"measurement": "Suspension", "setting": "second liquid: glycine (MW 75)", "value": "−"}
    ]}
  ]
}
